Results reported in patent US20110071158A1, “NEW COMPOUNDS” (BOEHRINGER INGELHEIM INTERNATIONAL GMBH, priority 2009, published 2011).

These compounds were tested against T1, PTK2 enzyme (Homo sapiens, UniProt Q05397) (assay: PTK2 enzyme test, Assay 1 (DELFIA, poly-Glu-Tyr substrate, antibody PT60)). Settings: Assay 1 (values without *); 1 h pre-incubation, 2% DMSO.
T1 construct: purchased Invitrogen PV3832
T1 sequence (Q05397 whole entry): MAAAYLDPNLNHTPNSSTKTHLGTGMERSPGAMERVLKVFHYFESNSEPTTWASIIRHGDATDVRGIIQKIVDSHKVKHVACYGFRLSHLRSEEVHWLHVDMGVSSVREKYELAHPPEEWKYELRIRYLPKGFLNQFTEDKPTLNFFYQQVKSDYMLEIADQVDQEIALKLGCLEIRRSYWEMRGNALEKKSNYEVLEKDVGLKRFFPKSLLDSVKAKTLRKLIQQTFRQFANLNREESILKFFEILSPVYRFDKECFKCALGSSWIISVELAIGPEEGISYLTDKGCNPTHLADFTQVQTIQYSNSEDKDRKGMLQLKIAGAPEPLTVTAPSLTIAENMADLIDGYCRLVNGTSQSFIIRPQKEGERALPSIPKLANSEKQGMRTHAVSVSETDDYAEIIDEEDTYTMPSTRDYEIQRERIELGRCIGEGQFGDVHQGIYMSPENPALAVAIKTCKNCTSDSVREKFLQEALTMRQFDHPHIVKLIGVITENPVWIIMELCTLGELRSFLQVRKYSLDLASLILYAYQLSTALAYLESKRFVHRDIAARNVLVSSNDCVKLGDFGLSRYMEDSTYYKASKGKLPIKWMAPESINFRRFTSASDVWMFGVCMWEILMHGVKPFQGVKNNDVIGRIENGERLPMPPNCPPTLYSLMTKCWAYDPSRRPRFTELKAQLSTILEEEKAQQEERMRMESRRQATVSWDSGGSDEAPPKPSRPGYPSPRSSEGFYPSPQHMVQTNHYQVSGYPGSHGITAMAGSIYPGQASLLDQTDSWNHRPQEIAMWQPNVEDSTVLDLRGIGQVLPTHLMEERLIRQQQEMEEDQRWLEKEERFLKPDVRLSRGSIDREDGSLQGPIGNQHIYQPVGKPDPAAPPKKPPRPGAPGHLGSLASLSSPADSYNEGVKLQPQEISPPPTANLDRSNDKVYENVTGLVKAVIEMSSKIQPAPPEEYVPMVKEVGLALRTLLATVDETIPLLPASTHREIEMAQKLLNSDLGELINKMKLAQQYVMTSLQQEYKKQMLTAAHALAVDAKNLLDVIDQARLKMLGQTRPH
Format: biochemical
Method: This test uses active PTK2 enzyme (Invitrogen Code PV3832) and poly-Glu-Tyr (4:1, Sigma P-0275) as the kinase substrate. The kinase activity is detected through the phosphorylation of the substrate in a DELFIA™ assay. The phosphorylated substrate is detected with the europium-labelled phosphotyrosine antibody PT60 (Perkin Elmer, No.: AD00400).
In order to determine concentration-activity curves with PTK2-inhibitors the compounds are serially diluted in 10% DMSO/H2O and 10 μL of each dilution are placed in each well of a 96-well microtitre plate (clear plate with a U-shaped base, Greiner No. 650101) (the inhibitors are tested in duplicates) and mixed with 10 μL/well of PTK2 kinase (0.01 μg/well). PTK2 kinase has been correspondingly diluted beforehand with kinase dilution buffer (20 mM TRIS/HCl pH 7.5, 0.1 mM EDTA, 0.1 mM EGTA, 0.286 mM sodium orthovanadate, 10% glycerol with the addition of freshly prepared BSA (fraction V, 1 mg/mL) and DTT (1 mM)). The test compound and the PTK2 kinase are pre-incubated for 1 h at RT and shaken at 500 revolutions per min. The reaction is started by the addition of 10 μL/well poly (Glu,Tyr) substrate (25 μg/well poly (Glu, Tyr), 0.05 μg/well biotinylated poly (Glu,Tyr) dissolved in 250 mM TRIS/HCl pH 7.5, 9 mM DTT)—the final concentration of DMSO is 2%. Then 20 μL of ATP Mix (30 mM TRIS/HCl pH 7.5, 0.02% Brij, 0.2 mM sodium orthovanadate, 10 mM magnesium acetate, 0.1 mM EGTA, 1× phosphatase inhibitor cocktail 1 (Sigma, No.: P2850), 50 μM ATP (Sigma, No.: A3377; 15 mM stock solution)) are added. After 1 h of kinase reaction (the plates are shaken at 500 rpm), the reaction is stopped by the addition of 12 μL/well 100 mM EDTA, pH 8.0 and shaken for a further 5 min at RT (500 rpm). 55 μL of the reaction mixture are transferred into a streptavidin plate (Strepta Well High Bind (transparent, 96-well) made by Roche, No.: 11989685001) and incubated for 1 h at RT (shaking at 500 rpm). Then the microtitre plate is washed three times with 200 μL/well D-PBS (Invitrogen, No. 14190). 100 μL of a solution containing DELFIA Eu-N1 Anti-Phosphotyrosine PT60 antibody (Perkin Elmer, No.: AD0040, diluted 1:2000 in DELFIA test buffer (Perkin Elmer, No.: 1244-111)) is then added and the mixture is incubated for 1 h at RT (shaking at 500 rpm). Then the plate is washed three times with 200 μL/well DELFIA washing buffer (Perkin Elmer, No.: 1244-114), 200 μL/well strengthening solution (Perkin Elmer, No.: 1244-105) are added and the mixture is incubated for 10 min at RT (shaking at 300 rpm).
The time-delayed europium fluorescence is then measured in a microtitre plate reader (VICTOR^3, Perkin Elmer). […] Wells that contain test buffer instead of enzyme are used as a control of the background kinase activity.
The IC50 values are determined from analyses of the concentration activity by iterative calculation with the aid of a sigmoid curve analysis algorithm (FIFTY, based on Graph PAD Prism Version 3.03) with a variable Hill coefficient.
For `CCN(CC)C(=O)CN[C@@H]1CCCC[C@H]1Nc1nc(Nc2cc(F)c(C(=O)NC3CCN(C)CC3)cc2OC)ncc1C(F)(F)F` [Example I-25], the IC50 was 24 nM. `COc1cc(C(=O)NC2CCN(C)CC2)ccc1Nc1ncc(C(F)(F)F)c(N[C@@H]2CCCC[C@@H]2N(OC)C(C)=O)n1` [Example I-114] was tested, and the IC50 was 1 nM. Work on `COc1cc(C(=O)NC2CCN(C)CC2)ccc1Nc1ncc(C(F)(F)F)c(N[C@@H]2CCCC[C@H]2N(C)C(=O)C2CCC2)n1` [Example I-84] yielded an IC50 of 37 nM. For `COCC(=O)N[C@@H]1CCCC[C@H]1Nc1nc(Nc2ccc(N3CCN(C)CC3)cc2OC)ncc1C(F)(F)F` [Example I-31], the IC50 was 5 nM. For `COc1cc(N2CCN(C)CC2)ccc1Nc1ncc(C(F)(F)F)c(N[C@@H]2CCCC[C@H]2N(C)C(C)=O)n1` [Example I-101], the IC50 was 2 nM. In the case of `COc1cc(C(=O)NC2CCN(C)CC2)ccc1Nc1ncc(C(F)(F)F)c(N[C@@H]2CCCC[C@H]2NC(=O)CN2CCOCC2)n1` [Example I-68], the IC50 is reported as 200 nM. For `COc1cc(C(=O)N[C@@H]2CCCN(C)C2)ccc1Nc1ncc(C(F)(F)F)c(N[C@@H]2CCCC[C@H]2N(C)C(C)=O)n1` [Example I-111], the IC50 was 1 nM. `CCNC(=O)c1ccc(Nc2ncc(Br)c(N[C@@H]3CCCC[C@H]3NC(C)=O)n2)c(OC)c1` [Example I-48] showed an IC50 of 2 nM. Compound `COc1cc(C(=O)NC2CCCN(C)C2)ccc1Nc1ncc(C(F)(F)F)c(N[C@@H]2CCCC[C@H]2NC(C)=O)n1` (stereo partly drawn) [Example I-41] has an IC50 of 2 nM. Compound `COCC(=O)N(C)[C@@H]1CCCC[C@H]1Nc1nc(Nc2ccc(C(=O)NC3CCN(C)CC3)cc2OC)ncc1C(F)(F)F` [Example I-3, 3-methoxy-4-(4-{(1R,2R)-2-[(2-methoxy-acetyl)-methyl-amino]-cyclohexylamino}-5-trifluoromethyl-pyrimidin-2-ylamino)-N-(1-methyl-piperidin-4-yl)-benzamide] has an IC50 of 10 nM. `CCC(=O)N[C@@H]1CCCC[C@H]1Nc1nc(Nc2ccc(C(=O)NC3CCN(C)CC3)cc2OC)ncc1C(F)(F)F` [Example I-1, 3-methoxy-N-(1-methyl-piperidin-4-yl)-4-[4-((1R,2R)-2-propionylamino-cyclohexylamino)-5-trifluoromethyl-pyrimidin-2-ylamino]-benzamide] showed an IC50 of 1 nM. `COc1cc(C(=O)NCCN(C)C)c(Cl)cc1Nc1ncc(Br)c(N[C@@H]2CCCC[C@H]2N(C)S(C)(=O)=O)n1` [Example I-172] was tested, and the IC50 was 2 nM. In the case of `CCN1CCC(NC(=O)c2ccc(Nc3ncc(C(F)(F)F)c(N[C@@H]4CCCC[C@H]4NC(C)=O)n3)c(OC)c2)CC1` [Example I-8], the IC50 is reported as 2 nM. Work on `COc1cc(C(=O)NCCN(C)C)c(F)cc1Nc1ncc(Cl)c(N[C@@H]2CCC[C@H]2N(C)S(C)(=O)=O)n1` [Example I-170] yielded an IC50 of 2 nM. `CCC(=O)N(C)[C@@H]1CCCC[C@H]1Nc1nc(Nc2ccc(C(=O)NC3CCN(C)CC3)cc2OC)ncc1C(F)(F)F` [Example I-81] gave an IC50 of 3 nM. In the case of `COc1cc(C(=O)NC2CCN(C)CC2)ccc1Nc1ncc(C(F)(F)F)c(N[C@@H]2CCCC[C@H]2N(CC2CC2)C(C)=O)n1` [Example I-103], the IC50 is reported as 7 nM. `COc1cc([C@@H](O)CO)ccc1Nc1ncc(C(F)(F)F)c(N[C@@H]2CCCC[C@H]2N(C)S(C)(=O)=O)n1` [Example I-157] gave an IC50 of 0.69 nM. In the case of `COc1cc(C(=O)NC2CCN(C)CC2)ccc1Nc1ncc(C(F)(F)F)c(N[C@@H]2CCCC[C@H]2NC(C)=O)n1` [Example I-11], the IC50 is reported as 2 nM. `COc1cc(Nc2ncc(C(F)(F)F)c(N[C@@H]3CCCC[C@H]3N(C)S(C)(=O)=O)n2)ccc1C(=O)NC1CCN(C)CC1` [Example I-173] showed an IC50 of 2 nM. `COc1cc(C(=O)NOCCN(C)C)ccc1Nc1ncc(C(F)(F)F)c(N[C@@H]2CCCC[C@H]2N(C)S(C)(=O)=O)n1` [Example I-132] gave an IC50 of 0.93 nM. With `COc1cc(C(=O)NC(C)C)ccc1Nc1ncc(C(F)(F)F)c(N[C@@H]2CCCC[C@H]2NC(C)=O)n1` [Example I-2, 4-[4-(2-acetylamino-cyclohexylamino)-5-trifluoromethyl-pyrimidin-2-ylamino]-N-isopropyl-3-methoxy-benzamide] the IC50 was 3 nM.
